According to patent publication US20100292132A1, “USE OF INSULIN C-PEPTIDE, ALONE OR IN COMBINATION WITH GLP-1, AS A THERAPEUTIC AGENT” (priority 2007, published 2010):

Experiments:
HIV-1IIIB = assay: HIV-1 antiviral assay (CPE reduction, MTS) in CEM-SS cells; details: for antiviral activity of positive control compounds: HIV-1IIIB in CEM-SS cells; for reduction of cytopathic effect (CPE) in HIV-1 infected CEM-SS cells: 10 micrograms per ml, HIV-1IIIB, 6 days post-infection
HCMV strain AD169 = assay: HCMV plaque formation assay in MRC-5 cells; details: for inhibition of HCMV plaque formation as compared to the virus control experiment: 10 micrograms per ml, MRC-5 cells, 7-10 days
[1] = test system: hepatitis B virus (HBV) ayw strain; assay: HBV replication assay in HepG2-2.2.15 cells (TaqMan PCR of secreted HBV DNA); type: cell-based; details: 10 micrograms per ml, six days
HUVEC = assay: Endothelial tube formation assay; type: cell-based, human; details: 10 micrograms per ml; 20 hours
Method: The endothelial tube formation assay is based on the ability of endothelial cells to form three-dimensional capillary-like tubular structures when cultured on a gel of basement membrane extract. The endothelial tube formation assay represents a powerful model for studying inhibition and induction of angiogenesis. Pre-labeled HUVEC with Calcein AM were seeded in a 96-well culture plate coated with extracellular metrix (Chemicon international Cat. ECM625) and treated with test peptides—10 micrograms per ml—in full growth medium. Positive control wes vehicle only. The endothelial cells were allowed to form tubes foe 20 hours and were then examined under an inverted fluorescent microscope. Duplicate wells for each treatment were photographed and quantitatevily analyzed for an average tubule length using image analysis software ImageProPlus. Raw data were expressed as average tubule lenghs in pixels ± standard deviation. Statistic p values were computed using the Student's t-test.

[2] = test system: Primary Human endothelial cells (HUVEC); assay: Endothelial cell migration assay; type: cell-based; details: 10 micrograms per ml; 22 hours
Method: Primary Human endothelial cells (HUVEC) were seeded in insert chambers with 3 micrometer pore size of multi-transwell plate for 6 hours at 37° C. in Endothelial Cell Basal Medium (EBM) supplemented with 0.1% bovine serum albumin. Thereafter, designated concentration of testing peptides—10 micrograms per ml—was added in duplicate wells. The endothelia were allowed to migrate for 22 hours at 37° C., then, migrated cells were fixed and stained with Hoechst 33342 dye. Images of 3 fields per insert were taken and the number of migrated cells per field were quantified using the ImageProPlus software. Data were analyzed for the average number of the migrated cells and standard deviation of six data points for each treatment condition. Active test peptides against HUVEC migration was determined based on 50% inhibition of migrated cells as compared with the control. Statistic p values were computed using the Student's t-test.

murine spleen cells = assay: Th1/Th2 cytokine profiling assay; type: cell-based, Balb/c mice; details: 10 micrograms per ml; Ovalbumin restimulation; 72 hours
Source text: The Balb/c mice (originated in 1923, it is a popular strain and is used in many different research disciplines. Also classified as an inbred from the production of 20 or more successive brother-sister matings, the Balb/c mouse is albino and small in size) were immunized on Days 1, 15, and 29 with Ovalbumin (Ovalbumin is the main protein found in egg white, commonly used to stimulate an immunological reaction in test animals) in PBS (5 micrograms/injection). On day 50, spleens of the mice were harvested (3 weeks after last boost with Ovalbumin). […] Thereafter, additional Ovalbumin was added to the cells at 10 micrograms/ml for in vitro restimulation of the cells. 72 hours later, cell supernatants were harvested and assayed using the Becton Dickinson Mouse Th1/Th2 Cytokine CBA Kit. This kit can be used to measure Interleukin-2 (IL-2), Interleukin-4 (IL-4), Interleukin-5 (IL-5), Interferon-γ(IFN-γ), and Tumor Necrosis Factor-α (TNF-α) protein levels in a single sample. The kit performance has been optimized for analysis of physiologically relevant concentrations (pg/ml levels) of specific cytokine proteins in tissue culture supernatants and serum samples.

Molecule: Cc1cn([C@H]2C[C@H](N=[N+]=[N-])[C@@H](CO)O2)c(=O)[nH]c1=O [AZT, reference compound]
- antiviral activity of positive control compounds (HIV-1IIIB): expected levels of antiviral activity

Molecule: Nc1nc(O)c2ncn(COC(CO)CO)c2n1 [Ganciclovir, reference compound]
- antiviral activity of positive control compound (HCMV strain AD169; HCMV in MRC-5 cells): expected levels of antiviral activity

Molecule: CC(C)(C)NC(=O)[C@@H]1CN(Cc2cccnc2)CCN1C[C@@H](O)C[C@@H](Cc1ccccc1)C(=O)N[C@H]1c2ccccc2C[C@H]1O [indinavir, reference compound]
- antiviral activity of positive control compounds (HIV-1IIIB): expected levels of antiviral activity

Molecule: Glu-Ala-Glu-Asp-Leu-Gln-Val-Gly-Gln-Val-Glu-Leu-Gly-Gly-Gly-Pro-Gly-Ala-Gly-Ser-Leu-Gln-Pro-Leu-Ala-Leu-Glu-Gly-Ser-Leu-Gln-OH (EAEDLQVGQVELGGGPGAGSLQPLALEGSLQ; printed: Glu-Ala-Glu-Asp-Leu-Gln-Val-Gly-Gln-Val-Glu-Leu-Gly-Gly-Gly-Pro-Gly-Ala-Gly-Ser-Leu-Gln-Pro-Leu-Ala-Leu-Glu-Gly-Ser-Leu-Gln-) [Peptide 1]
- inhibition of HBV replication as compared to the virus control infection [1]: 13.6%
- inhibition of the tube formation of human endothelial cells (HUVEC): 19%
- reduction of cytopathic effect (CPE) in HIV-1 infected CEM-SS cells (HIV-1IIIB): 93.6%
- inhibition of the migration of human endothelial cells [2]: 29%
- inhibition of HCMV plaque formation as compared to the virus control experiment (HCMV strain AD169): did not inhibit
- change of the production of IFN-gamma (murine spleen cells): did not significantly change
- change of the production of IL-5 (murine spleen cells): did not significantly change
- change of the production of TNF-alpha (murine spleen cells): did not significantly change
- induction of the production of IL-2 (murine spleen cells): 24.6%
- induction of the production of IL-4 (murine spleen cells): 34.7%

Molecule: His-Ala-Glu-Gly-Thr-Phe-Thr-Ser-Asp-Val-Ser-Ser-Tyr-Leu-Glu-Gly-Gln-Ala-Ala-Lys-Glu-Phe-Ile-Ala-Trp-Leu-Val-Lys-Gly-Arg-NH2 [Peptide 2]
- inhibition of HBV replication as compared to the virus control infection [1]: 37.2%
- inhibition of the tube formation of human endothelial cells (HUVEC): 1%
- reduction of cytopathic effect (CPE) in HIV-1 infected CEM-SS cells (HIV-1IIIB): 61.1%
- inhibition of the migration of human endothelial cells [2]: 6%
- inhibition of HCMV plaque formation as compared to the virus control experiment (HCMV strain AD169): 2.9%
- change of the production of IL-5 (murine spleen cells): did not significantly change
- change of the production of TNF-alpha (murine spleen cells): did not significantly change
- decrease of the production of IFN-gamma (murine spleen cells): 39.7%
- decrease of the production of IL-2 (murine spleen cells): 45.7%
- decrease of the production of IL-4 (murine spleen cells): 70.9%
